# In patent publication US9598459B2, “Pharmaceutical compositions and methods” (priority 2015, dated 2017):
# Values joined by “and” are separate entries in the source; they are usually repeats but may differ in a detail not shown here. Equal values may be shown once.
# Key:
# [1] = system: Hepatitis C virus (replicon) clone B (genotype 1a); assay: HCV genotype 1a HuH-7 clone B subgenomic replicon RNA replication; format: cell-based, human hepatitis C virus; settings: 10 μM
# [2] = system: Norwalk virus (replicon) GT1; assay: Norwalk virus replicon (GT1) in HG23, RNA hybridization; format: cell-based, Norwalk virus (human norovirus); settings: Norwalk virus
# [3] = system: MNV MNV-1; assay: Murine norovirus (MNV-1) antiviral screen in RAW267.4; format: cell-based; settings: RAW267.4, Neutral Red (Cytopathology), MNV-1, RAW267.4, Example 11
# [4] = system: cellular ribosomal RNA (rRNA) synthesis; assay: Cellular ribosomal RNA synthesis in HCV replicon cells (TaqMan RT-qPCR); format: cell-based; settings: 10 μM
# [5] = in vitro; settings: human
# [6] = Toxicity in RAW267.4 cells (neutral red); settings: mouse, RAW267.4 cells, CC50, Neutral Red (Toxicity), Example 11
# [7] = in vitro; settings: human; remark: listed apart in the source
# [8] = in vitro; settings: African green monkey, CC50
# [9] = Cytotoxicity on CCRF-CEM; settings: human, CCRF-CEM cells, CC50, Cytotoxicity control, CCRF-CEM, CellTiter MTS
# [10] = Cytotoxicity control on HepG2 (CellTiter MTS); settings: human, HepG2 cells
# [11] = system: HIV-1 LAV; assay: Inhibition of inducible HIV-1 LAV replication in OM-10.1 (RT values); format: cell-based, human immunodeficiency virus type 1; settings: for RT Values: SAMPLE 1-3, MEAN
# [12] = Toxicity in OM-10.1 (Cell Titer 96); settings: human, OM-10.1 cells
# [13] = system: OM-10.1 cells; assay: Toxicity in OM-10.1 (Cell Titer 96); settings: for TOXICITY VALUES (Cell Titer 96): SAMPLE 1-3, MEAN
# [14] = GT1, HG23, Norwalk virus (replicon) GT1, HG23, Table 10
# [15] = Human immunodeficiency virus 1, OM-10.1
compound,measurement,setting,value
"C[C@@]1(O)[C@H](O)[C@@H](CO)O[C@H]1n1ccc(N)nc1=O [2′-C-methylcytidine (RS-446), 2′-C-methylcytidine, reference compound]",TaqMan RT-qPCR threshold cycle value difference (ΔCT) of HCV replicon RNA synthesis,[1],5.72
same,Inhibition of HCV replicon RNA syntheses at the fixed concentration of 10 μM of the test compound,[1]; HuH-7 clone B,98.08%
same,EC50,[2]; [14],6.9 µM
same,EC90,[2]; [14],18 µM
same,EC90,"[2]; GT1, HG23, RNA Hybridization (Replicon), NV GT1, HG23, Example 10",19 µM
same,EC50,"[2]; GT1, HG23, RNA Hybridization (Replicon), NV GT1, HG23, Example 10, unit from Conc. Range",6.4 µM
same,EC90,[3],3.1 µM
same,EC50,[3]; unit from Conc. Range,1 µM
same,Inhibition of cellular ribosomal RNA (rRNA) synthesis at the fixed concentration of 10 μM of the test compound,[4],31.09%
same,CC50,[5],> 300 µM
same,CC50,[6],> 30 µM
C[C@@H]1C[C@@H]([C@H](O)CC2CC(=O)NC(=O)C2)C(=O)[C@@H](C)C1 [Cycloheximide],CC50,[7],0.5 µM
same,CC50,[8],0.2 µM
same,CC50,[9],0.1 µM
same,CC50,[10],0.6 µM
O=c1c2ccccc2n2nnc3ccc(NCCCN4CCN(CCCNc5ccc6nnn7c8ccccc8c(=O)c5c67)CC4)c1c32 [Temacrazine (TMZ)],% VC,[11]; 0.10 nM,96.8%
same,RT Values,[11]; 0.10 nM,30380 cpm and 31745 cpm and 26409 cpm
same,% VC,[11]; 1.00 nM,87.9%
same,RT Values,[11]; 1.00 nM,32770 cpm and 23041 cpm and 24504 cpm
same,% VC,[11]; 3.16 nM,92.4%
same,RT Values,[11]; 3.16 nM,30588 cpm and 25259 cpm and 28648 cpm
same,% VC,[11]; 10.0 nM,99.6%
same,RT Values,[11]; 10.0 nM,27453 cpm and 31623 cpm and 31990 cpm
same,% VC,[11]; 31.6 nM,87.0%
same,RT Values,[11]; 31.6 nM,25515 cpm and 24677 cpm and 29321 cpm
same,% VC,[11]; 100 nM,37.5%
same,% VC,[11]; 316 nM,22.7%
same,RT Values,[11]; 316 nM,6512 cpm and 5272 cpm and 8986 cpm
same,% VC,[11]; 1000 nM,2.0%
same,EC50,[11]; Human immunodeficiency virus 1,0.07 µM
same,EC90,[11]; Human immunodeficiency virus 1,0.64 µM
same,IC50,[11]; [15],0.0748 µM
same,IC90,[11]; [15],0.641 µM
same,IC 95%,[11]; OM-10.1,0.847 µM
same,Selectivity Index (CC50/EC50),"[11]; OM-10.1, Table 7",>0.13
same,CC50,[12],> 1 µM
same,% CC,[13]; 0.10 nM,108.4%
same,TOXICITY VALUES (Cell Titer 96),[13]; 0.10 nM,0.727 O.D. @ 490/650 nm and 0.895 O.D. @ 490/650 nm and 0.621 O.D. @ 490/650 nm
same,% CC,[13]; 1.00 nM,109.3%
same,TOXICITY VALUES (Cell Titer 96),[13]; 1.00 nM,0.781 O.D. @ 490/650 nm and 0.744 O.D. @ 490/650 nm and 0.736 O.D. @ 490/650 nm
same,% CC,[13]; 3.16 nM,126.3%
same,TOXICITY VALUES (Cell Titer 96),[13]; 3.16 nM,0.830 O.D. @ 490/650 nm and 0.933 O.D. @ 490/650 nm and 0.849 O.D. @ 490/650 nm
same,% CC,[13]; 10.0 nM,137.0%
same,TOXICITY VALUES (Cell Titer 96),[13]; 10.0 nM,0.882 O.D. @ 490/650 nm and 0.999 O.D. @ 490/650 nm and 0.954 O.D. @ 490/650 nm
same,% CC,[13]; 31.6 nM,138.1%
same,TOXICITY VALUES (Cell Titer 96),[13]; 31.6 nM,0.967 O.D. @ 490/650 nm and 0.902 O.D. @ 490/650 nm and 0.988 O.D. @ 490/650 nm
same,% CC,[13]; 100 nM,138.2%
same,TOXICITY VALUES (Cell Titer 96),[13]; 100 nM,0.917 O.D. @ 490/650 nm and 0.990 O.D. @ 490/650 nm and 0.952 O.D. @ 490/650 nm
same,% CC,[13]; 316 nM,136.7%
same,TOXICITY VALUES (Cell Titer 96),[13]; 316 nM,0.977 O.D. @ 490/650 nm and 1.037 O.D. @ 490/650 nm and 0.813 O.D. @ 490/650 nm
same,% CC,[13]; 1000 nM,129.9%
same,TOXICITY VALUES (Cell Titer 96),[13]; 1000 nM,0.897 O.D. @ 490/650 nm and 0.910 O.D. @ 490/650 nm and 0.879 O.D. @ 490/650 nm
same,TC 90%,[13]; OM-10.1,>1 µM
same,TC 95%,[13]; OM-10.1,>1 µM
same,CC50,"[13]; read-out: TC 50%, OM-10.1",> 1 µM
